Experimental data: patent US20240092779A1, “USP1 INHIBITORS AND USES THEREOF” (Zentaur Therapeutics USA Inc., priority 2022, published 2024)

Columns and labels:
HCC1806 Ub-PCNA (USP1) = assay: USP1 Western Blot Protocol (HCC1806 Ub-PCNA); format: cell-based; conditions: HCC1806 cells, 4 hours
Excerpt: USP1 Western Blot Protocol (HCC1806 Ub-PCNA)
USP1 is a deubiquitinase that catalyze the hydrolysis of iso-peptide bond between ubiquitin and the substrate proteins. Inhibition of USP1 activity results in accumulation of mono-ubiquitinated substrate such as Ub-PCNA. A cell assay was set up to determine the cellular potency of USP1 compounds by monitoring the accumulation of Ub-PCNA. The signal intensity was detected by a specific Ub-PCNA antibody through Western-blot analysis.
The assay was initiated by seeding HCC1806 cells (ATCC, CRL-2335) into 6-well plates (Corning, 3516), with a seeding density of 3×10^5 cells per well and 2 mL RPMI 1640 culture medium (Gibco, 11875119). The plates were incubated overnight at 37° C. and 5% CO2. Compounds, solubilized in DMSO (Solarbio, D8371) as 1 mM stock solution, were diluted in 4-fold steps for 5-cencentration point dose response plus a no-compound DMSO control. Diluted compounds (2 μL) were transferred into assay wells (with a final DMSO concentration of −0.1%) and the resulted assay plates incubated at 37° C. and 5% CO2 for 4 hours. After aspiration of culture medium, 100 μL of 4° C. RIPA lysis buffer (Boston BioProducts, BP-115D) supplemented with vendor recommended concentrations of protease (Roche, 4693116001) and phosphatase (Roche, 4906837001) inhibitor, was added to each well and incubated for 10 minutes on the ice. Cells were scrapped loose from the bottom of well with a scraper (Corning, 3008), transferred into a 600 μL EP tube, sonicated using Ultrasound (Qsonica, Q800R3, with 30% energy, 5-second pulse on/off cycles at 4° C., for total 2 minutes), centrifuged 13,000 rpm for 15 minutes at 4° C., and then the supernatant transferred to a new 600 μL EP tube. The total protein concentration was determined using BCA kit following vendor recommended protocol (Solarbio, PC0020-500). Loading samples were prepared by diluting the total protein concentration to 1.5 μg/μL with 5 X NuPAGE SDS loading buffer (Beyotime, P0015L) and RIPA lysis buffer, and boiling at 100° C. for 5 minutes.
15 μg protein from each sample was loaded onto NuPAGE® Novex 4-12% Bis-Tris Midi Gel, 26 W (Invitrogen, WG1403BOX) and electrophoresis was run at 80 V for 30 minutes and 120 V till the end using 1x NuPAGE® MOPS SDS Running Buffer (Novex, NP0001). The gel was then transferred to nitrocellulose membrane using the dry transfer system (iBlot 2 Transfer Stacks, nitrocellulose, D323001) with a program consisting of 20 V for 1 minute, 23 V for 4 minutes and 25 V for 2 minutes. After the membrane was blocked with 5% BSA (Solarbio, A8020) in 1X TBST (CST, 9997S) for 1 hour at room temperature, specific antibodies (Ubiquityl-PCNA antibody (CST, 13439) at 1:500 dilution, PCNA antibody (Santa Cruz, sc-56) at 1:1000 dilution, and GAPDH (CST, 5174) at 1:2000 dilution in 1 X TBST containing 1% BSA) were added and incubated at room temperature for 1.5 hours. After washing the Nitrocellulose membranes with 1 X TBST for 3 times, 10 minutes each time at room temperature, fluorescently labeled secondary antibodies (anti-rabbit IgG, Licor, 926-32211; anti-mouse IgG, LI-COR, 926-68070) at 1:5000 dilution in 1 X TBST containing 1% BSA were added and incubated for 1 hour at room temperature in the dark. The membranes were then rinsed with 1 X TBST and immersed in the RO water. Imaging of band intensity was acquired with Li—COR imaging system (Li—COR, Odyssey clx ES).
Percentage of USP1 inhibition (% Vehicle) was calculated by using following equation examining Ub-PCNA upregulation:
And IC50 was calculated using four-parameter logistic fitting program • Y=Bottom+(Top-Bottom)/(1+10 {circumflex over (()}(LogIC50−X)*Hill Slope)) • X=Log of dose or concentration
(§1) Certain compounds were tested in the assays.

[1] = target: T1, recombinant USP1/UAF1 enzyme complex (Homo sapiens, UniProt O94782); assay: Enzyme assay: deubiquitinase fluorometric assay with ubiquitin-Rhodamine substrate; format: biochemical; conditions: USP1/UAF1, Ub-Rho110 substrate, 2 hours preincubation, 1 hour reaction
T1 construct: purchased Biortus
T1 sequence (O94782 whole entry): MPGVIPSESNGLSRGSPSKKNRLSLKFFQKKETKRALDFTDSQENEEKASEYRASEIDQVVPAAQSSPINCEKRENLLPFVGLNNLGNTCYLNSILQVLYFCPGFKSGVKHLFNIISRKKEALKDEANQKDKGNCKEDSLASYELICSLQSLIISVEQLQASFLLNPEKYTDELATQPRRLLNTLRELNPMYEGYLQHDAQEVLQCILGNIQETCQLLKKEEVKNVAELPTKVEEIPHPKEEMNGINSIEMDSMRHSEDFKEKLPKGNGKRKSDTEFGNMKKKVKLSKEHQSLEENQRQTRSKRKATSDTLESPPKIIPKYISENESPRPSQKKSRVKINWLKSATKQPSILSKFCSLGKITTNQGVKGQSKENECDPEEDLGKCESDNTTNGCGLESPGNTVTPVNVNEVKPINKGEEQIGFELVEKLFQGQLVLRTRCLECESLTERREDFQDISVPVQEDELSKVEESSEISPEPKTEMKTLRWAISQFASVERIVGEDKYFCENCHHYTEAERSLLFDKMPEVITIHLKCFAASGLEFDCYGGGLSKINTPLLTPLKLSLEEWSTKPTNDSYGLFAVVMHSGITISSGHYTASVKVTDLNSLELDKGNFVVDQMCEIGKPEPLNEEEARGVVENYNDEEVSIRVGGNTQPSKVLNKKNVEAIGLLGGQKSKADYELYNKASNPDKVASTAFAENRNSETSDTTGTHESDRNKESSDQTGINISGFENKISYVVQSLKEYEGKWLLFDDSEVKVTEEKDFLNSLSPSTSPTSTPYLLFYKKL
T1 sequence (Q8TAF3 whole entry partner): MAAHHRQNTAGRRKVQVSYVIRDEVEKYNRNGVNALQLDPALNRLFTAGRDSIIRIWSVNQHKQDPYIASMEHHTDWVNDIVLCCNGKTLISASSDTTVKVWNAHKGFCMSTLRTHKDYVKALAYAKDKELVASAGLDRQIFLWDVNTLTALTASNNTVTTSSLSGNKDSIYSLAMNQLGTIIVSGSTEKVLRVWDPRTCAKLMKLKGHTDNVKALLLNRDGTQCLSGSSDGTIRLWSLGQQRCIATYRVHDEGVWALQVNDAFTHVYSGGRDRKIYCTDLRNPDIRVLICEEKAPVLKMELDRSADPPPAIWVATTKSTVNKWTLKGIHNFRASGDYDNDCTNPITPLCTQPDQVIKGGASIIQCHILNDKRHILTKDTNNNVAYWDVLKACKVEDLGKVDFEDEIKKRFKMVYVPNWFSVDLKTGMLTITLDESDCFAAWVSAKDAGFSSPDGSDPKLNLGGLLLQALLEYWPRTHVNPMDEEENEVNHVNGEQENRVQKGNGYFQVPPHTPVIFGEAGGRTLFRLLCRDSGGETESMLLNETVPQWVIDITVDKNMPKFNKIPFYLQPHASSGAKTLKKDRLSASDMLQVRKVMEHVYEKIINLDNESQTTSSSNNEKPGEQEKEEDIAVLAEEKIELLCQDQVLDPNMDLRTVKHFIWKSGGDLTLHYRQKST
Description: Enzymatic inhibitory potency of the compounds was assessed in a deubiquitinase fluorometric assay using ubiquitin-Rhodamine (Ub-Rho110, R&D Systems) as substrate and the recombinant USP1/UAF1 enzyme complex (Biortus). Assays were performed in a final volume of 12 μL using black 384-well plates (Corning #4514) containing 50 mM HEPES (pH 7.5, BioRoYee), 0.5 mM EDTA, 1 mM dithiothreitol, 0.1 mg/mL bovine serum albumin, 50 nM Ub-Rhol10, 0.004 nM USP1/UAF1, and series diluted compounds from 10 μM to 0.5 nM (10 dilution steps). Assay-ready plates containing 40 nL of Echo-dispensed compound in DMSO were reconstituted with 2 μL of ddH2O, then 5 μL of USP1/UAF1 enzyme mixture was added and preincubated at room temperature for 2 hours. Enzymatic reaction was initiated by the addition of […] substrate mixture and assay allowed to proceed for 1 hour at room temperature before quenching with 3 μL of 150 mM citric acid. Fluorescence signal was detected via TECAN SPARK with excitation at 485 nm and emission at 535 nm. Data analysis was done using GraphPad Prism8 and IC50 values were obtained by 4-parameter logistic curve fitting.
as §1

MDA-MB-436 cells = assay: CTG Protocol (MDA-MB-436 GI50), antiproliferative activity; format: cell-based, human; conditions: MDA-MB-436 cells (BRCA1 mutation), 7-day incubation, CellTiter-Glo
Summary of the method: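 BRCA1-mutant MDA-MB-436 cells were seeded at 1000 cells/well in DMEM, left overnight, then exposed to a 9-point, 3-fold compound series for 7 days at 37 °C, 5% CO2. Viability was read by CellTiter-Glo luminescence. % inhibition was plotted against concentration to derive GI50.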

Row | Structure (SMILES) | IC50 (HCC1806 Ub-PCNA (USP1); Homo sapiens) [nM] | IC50 [1] [nM] | GI50 (MDA-MB-436 cells; Homo sapiens, 168 h) [nM] | IC50 (HCC1806 Ub-PCNA (USP1)) [nM] | GI50 (MDA-MB-436 cells) [nM]
1 | COc1ncnc(C2CC2)c1-c1ncc2ccc(=O)n(Cc3ccc(-c4nc(C(F)(F)F)cn4C4COC4)cc3)c2n1 [Compound 59, 2-(4-cyclopropyl-6-methoxypyrimidin-5-yl)-8-({4-[1-(oxetan-3-yl)-4-(trifluoromethyl)imidazol-2-yl]phenyl}methyl)pyrido[2,3-d]pyrimidin-7-one] | 10 to 100 | 10 to 100 | 10 to 100 | – | –
2 | COc1ncnc(C2CC2)c1-c1ncc2ccc(=O)n(Cc3ccc(-c4nccc(C(F)(F)F)n4)cc3)c2n1 [Compound I-34] | > 1000 | 100 to 1000 | > 1000 | – | –
3 | Cc1ncnc(C2CC2)c1-c1ncc2ccc(=O)n(Cc3ccc(-c4nc(C(F)(F)F)cn4C)cc3)c2n1 [Compound I-49, 2-(4-Cyclopropyl-6-Methylpyrimidin-5-Yl)-8-({4-[1-Methyl-4-(Trifluoromethyl)Imidazol-2-Yl]Phenyl}Methyl)Pyrido[2,3-d]Pyrimidin-7-One] | 100 to 1000 | 10 to 100 | 100 to 1000 | – | –
4 | COc1ncnc(C2CC2)c1-c1ncc2cc(C(C)(C)O)c(=O)n(Cc3ccc(-c4nc(C(F)(F)F)cn4C)cc3)c2n1 [Compound 70] | – | 10 to 100 | – | 10 to 100 | 10 to 100
5 | COc1ncnc(C2CC2)c1-c1ncc2ccc(=O)n(Cc3ccc(-c4cncc(C(F)(F)F)n4)cc3)c2n1 [Compound I-51, 2-(4-cyclopropyl-6-methoxypyrimidin-5-yl)-8-({4-[6-(trifluoromethyl)pyrazin-2-yl]phenyl}methyl)pyrido[2,3-d]pyrimidin-7-one] | 100 to 1000 | 100 to 1000 | 100 to 1000 | – | –
6 | COc1ncnc(C2CC2)c1-c1ncc2ccc(=O)n(Cc3ccc(-c4ncccc4F)cc3)c2n1 [Compound 65, 2-(4-cyclopropyl-6-methoxypyrimidin-5-yl)-8-{[4-(3-fluoropyridin-2-yl)phenyl]methyl}pyrido[2,3-d]pyrimidin-7-one] | > 1000 | 10 to 100 | 100 to 1000 | – | –
7 | COc1ncnc(C2CC2)c1-c1ncc2ccc(=O)n(Cc3ccc(-c4nc(C(F)(F)F)cn4CC(F)F)cc3)c2n1 [Compound 61, 2-(4-cyclopropyl-6-methoxypyrimidin-5-yl)-8-({4-[1-(2,2-difluoroethyl)-4-(trifluoromethyl)imidazol-2-yl]phenyl}methyl)pyrido[2,3-d]pyrimidin-7-one] | 10 to 100 | 10 to 100 | 10 to 100 | – | –
8 | COc1ncnc(C2CC2)c1-c1ncc2cc(C(C)=O)c(=O)n(Cc3ccc(-c4nc(C(F)(F)F)cn4C)cc3)c2n1 [Compound 69] | – | 10 to 100 | – | 10 to 100 | 10 to 100
9 | COc1ncnc(C2CC2)c1-c1ncc2ccc(=O)n(Cc3ccc(-c4cccc(C(F)(F)F)c4)cc3)c2n1 [Compound I-42] | 100 to 1000 | 100 to 1000 | 100 to 1000 | – | –
10 | CCn1cc(C(F)(F)F)nc1-c1ccc(Cn2c(=O)c(C(=O)N3CCN(C)CC3)cc3cnc(-c4c(OC)ncnc4C4CC4)nc32)cc1 [Compound I-30, 2-(4-Cyclopropyl-6-Methoxypyrimidin-5-Yl)-8-({4-[1-Ethyl-4-(Trifluoromethyl)Imidazol-2-Yl]Phenyl}Methyl)-6-(4-Methylpiperazine-1-Carbonyl)Pyrido[2,3-d]Pyrimidin-7-One] | 10 to 100 | 10 to 100 | 10 to 100 | – | –
11 | COc1ncnc(C)c1-c1ncc2ccc(=O)n(Cc3ccc(-c4nc(C(F)(F)F)cn4C)cc3)c2n1 [Compound I-46, 2-(4-Methoxy-6-Methylpyrimidin-5-Yl)-8-({4-[1-Methyl-4-(Trifluoromethyl)Imidazol-2-Yl]Phenyl}Methyl)Pyrido[2,3-d]Pyrimidin-7-One] | 100 to 1000 | 100 to 1000 | 100 to 1000 | – | –
12 | COc1ncnc(C2CC2)c1-c1ncc2cc(CN(C)C)c(=O)n(Cc3ccc(-c4nc(C(F)(F)F)cn4C)cc3)c2n1 [Compound 56] | – | 10 to 100 | – | 100 to 1000 | 10 to 100
13 | COc1ncnc(OC)c1-c1ncc2ccc(=O)n(Cc3ccc(-c4nc(C(F)(F)F)cn4C)cc3)c2n1 [Compound I-47, 2-(4,6-Dimethoxypyrimidin-5-Yl)-8-({4-[1-Methyl-4-(Trifluoromethyl)Imidazol-2-Yl]Phenyl}Methyl)Pyrido[2,3-d]Pyrimidin-7-One] | 10 to 100 | 10 to 100 | 10 to 100 | – | –
14 | COc1ncnc(C2CC2)c1-c1ncc2ccc(=O)n(Cc3ccc(-c4nc(C(F)(F)F)cn4C)cc3)c2c1F [Compound I-50, 7-(4-cyclopropyl-6-methoxypyrimidin-5-yl)-8-fluoro-1-({4-[1-methyl-4-(trifluoromethyl)imidazol-2-yl]phenyl}methyl)-1,6-naphthyridin-2-one] | 10 to 100 | 10 to 100 | 10 to 100 | – | –
15 | CC(C)n1ncc(Cl)c1-c1ncc2ccc(=O)n(Cc3ccc(-c4nc(C(F)(F)F)cn4C)cc3)c2n1 [Compound I-44, 2-(4-Chloro-2-Isopropylpyrazol-3-Yl)-8-({4-[1-Methyl-4-(Trifluoromethyl)Imidazol-2-Yl]Phenyl}Methyl)Pyrido[2,3-d]Pyrimidin-7-One] | 10 to 100 | 10 to 100 | 10 to 100 | – | –
16 | COc1ncnc(C2CC2)c1-c1ncc2cc(CN3CCN(C)CC3)c(=O)n(Cc3ccc(-c4nc(C(F)(F)F)cn4C)cc3)c2n1 [Compound 55, 2-(4-cyclopropyl-6-methoxypyrimidin-5-yl)-8-({4-[1-methyl-4-(trifluoromethyl)imidazo]-2-yl]phenylmethyl)-6-[(4-methylpiperazin-1-yl)methyl]pyrido[2,3-d]pyrimidin-7-one] | – | 10 to 100 | – | 10 to 100 | 10 to 100
17 | COc1ncnc(C2CC2)c1-c1ncc2ccc(=O)n(Cc3ccc(-c4nc(C(F)(F)F)cn4CCO)cc3)c2n1 [Compound 60, 2-(4-cyclopropyl-6-methoxypyrimidin-5-yl)-8-({4-[1-(2-hydroxyethyl)-4-(trifluoromethyl)imidazol-2-yl]phenyl}methyl)pyrido[2,3-d]pyrimidin-7-one] | 10 to 100 | 10 to 100 | – | – | –
